Results reported in patent US20260356819A1, “OXOISOINDOLINYL-SUBSTITUTED […] DERIVATIVE AND USE THEREOF” (GLUETACS THERAPEUTICS (SHANGHAI) CO., LTD., priority 2023, published 2026).

How the values were obtained:
Format in all cases: cell-based
Conditions in all cases: compounds at 50 nM and 500 nM
IKZF3 = biological target: T1, IKZF3 (Homo sapiens, UniProt Q96SW2+Q9UKT9); test: Western blot degradation of IKZF3 in hPBMCs (24 h)
T1 construct: The supernatant was aspirated as the extracted total cell protein; endogenous in cells; host or cells: human peripheral blood mononuclear cells (hPBMCs)
In short: (§1)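 PBMC Western blot, 24 h treatment; test levels 50 nM and 500 nM. Band density ÷ internal control, normalised → % remaining; degradation (%) = 1 − remaining.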

WEE1 = biological target: T2, WEE1 (Homo sapiens, UniProt P30291+Q96SW2); test: Western blot degradation of WEE1 in hPBMCs (24 h)
T2 construct: The supernatant was aspirated as the extracted total cell protein; endogenous in cells; host or cells: human peripheral blood mononuclear cells (hPBMCs)
In short: as §1

GSPT1 = biological target: T3, GSPT1 (Homo sapiens, UniProt P15170+Q96SW2); test: Western blot degradation of GSPT1 in hPBMCs (24 h)
T3 construct: The supernatant was aspirated as the extracted total cell protein; endogenous in cells; host or cells: human peripheral blood mononuclear cells (hPBMCs)
In short: as §1

IKZF1 = biological target: T4, IKZF1 (Homo sapiens, UniProt Q13422+Q96SW2); test: Western blot degradation of IKZF1 in hPBMCs (24 h)
T4 construct: The supernatant was aspirated as the extracted total cell protein; endogenous in cells; host or cells: human peripheral blood mononuclear cells (hPBMCs)
In short: as §1

IKZF2 = biological target: T5, IKZF2 (Homo sapiens, UniProt Q96SW2+Q9UKS7); test: Western blot degradation of IKZF2 in hPBMCs (24 h)
T5 construct: The supernatant was aspirated as the extracted total cell protein; endogenous in cells; host or cells: human peripheral blood mononuclear cells (hPBMCs)
In short: as §1

CK1α = biological target: T6, CK1α (Homo sapiens, UniProt P48729+Q96SW2); test: Western blot degradation of CK1α in hPBMCs (24 h)
T6 construct: The supernatant was aspirated as the extracted total cell protein; endogenous in cells; host or cells: human peripheral blood mononuclear cells (hPBMCs)
In short: as §1

T2 sequence (P30291 whole entry): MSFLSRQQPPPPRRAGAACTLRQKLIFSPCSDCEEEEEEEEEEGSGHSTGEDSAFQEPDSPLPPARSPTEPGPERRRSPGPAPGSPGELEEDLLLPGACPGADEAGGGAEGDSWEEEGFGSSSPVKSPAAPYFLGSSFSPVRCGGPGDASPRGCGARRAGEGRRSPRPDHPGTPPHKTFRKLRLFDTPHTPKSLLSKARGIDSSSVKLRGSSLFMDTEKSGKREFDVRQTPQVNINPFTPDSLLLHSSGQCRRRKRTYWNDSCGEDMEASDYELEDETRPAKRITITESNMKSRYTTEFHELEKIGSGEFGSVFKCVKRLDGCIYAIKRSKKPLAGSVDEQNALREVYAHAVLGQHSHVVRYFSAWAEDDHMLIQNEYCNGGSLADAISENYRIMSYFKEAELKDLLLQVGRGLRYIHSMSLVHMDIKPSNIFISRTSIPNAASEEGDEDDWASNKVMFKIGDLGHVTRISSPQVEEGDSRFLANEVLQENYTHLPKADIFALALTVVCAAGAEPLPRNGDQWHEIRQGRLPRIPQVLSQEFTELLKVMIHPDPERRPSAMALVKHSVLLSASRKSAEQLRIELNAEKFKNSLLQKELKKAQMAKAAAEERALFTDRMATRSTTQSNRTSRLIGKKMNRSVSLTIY
T2 sequence (Q96SW2 whole entry): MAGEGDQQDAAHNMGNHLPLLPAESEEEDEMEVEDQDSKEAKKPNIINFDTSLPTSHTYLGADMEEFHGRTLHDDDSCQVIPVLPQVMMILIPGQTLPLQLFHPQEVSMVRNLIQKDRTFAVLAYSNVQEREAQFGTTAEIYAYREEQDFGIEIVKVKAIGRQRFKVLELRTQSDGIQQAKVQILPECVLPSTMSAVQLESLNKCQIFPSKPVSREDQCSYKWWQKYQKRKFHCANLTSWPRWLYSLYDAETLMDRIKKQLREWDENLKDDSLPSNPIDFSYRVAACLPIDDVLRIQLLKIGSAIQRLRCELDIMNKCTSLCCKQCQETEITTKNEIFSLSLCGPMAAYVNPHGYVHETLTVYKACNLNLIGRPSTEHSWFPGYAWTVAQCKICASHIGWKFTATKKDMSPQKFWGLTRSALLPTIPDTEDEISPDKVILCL
T2 sequence (Q16531 whole entry partner): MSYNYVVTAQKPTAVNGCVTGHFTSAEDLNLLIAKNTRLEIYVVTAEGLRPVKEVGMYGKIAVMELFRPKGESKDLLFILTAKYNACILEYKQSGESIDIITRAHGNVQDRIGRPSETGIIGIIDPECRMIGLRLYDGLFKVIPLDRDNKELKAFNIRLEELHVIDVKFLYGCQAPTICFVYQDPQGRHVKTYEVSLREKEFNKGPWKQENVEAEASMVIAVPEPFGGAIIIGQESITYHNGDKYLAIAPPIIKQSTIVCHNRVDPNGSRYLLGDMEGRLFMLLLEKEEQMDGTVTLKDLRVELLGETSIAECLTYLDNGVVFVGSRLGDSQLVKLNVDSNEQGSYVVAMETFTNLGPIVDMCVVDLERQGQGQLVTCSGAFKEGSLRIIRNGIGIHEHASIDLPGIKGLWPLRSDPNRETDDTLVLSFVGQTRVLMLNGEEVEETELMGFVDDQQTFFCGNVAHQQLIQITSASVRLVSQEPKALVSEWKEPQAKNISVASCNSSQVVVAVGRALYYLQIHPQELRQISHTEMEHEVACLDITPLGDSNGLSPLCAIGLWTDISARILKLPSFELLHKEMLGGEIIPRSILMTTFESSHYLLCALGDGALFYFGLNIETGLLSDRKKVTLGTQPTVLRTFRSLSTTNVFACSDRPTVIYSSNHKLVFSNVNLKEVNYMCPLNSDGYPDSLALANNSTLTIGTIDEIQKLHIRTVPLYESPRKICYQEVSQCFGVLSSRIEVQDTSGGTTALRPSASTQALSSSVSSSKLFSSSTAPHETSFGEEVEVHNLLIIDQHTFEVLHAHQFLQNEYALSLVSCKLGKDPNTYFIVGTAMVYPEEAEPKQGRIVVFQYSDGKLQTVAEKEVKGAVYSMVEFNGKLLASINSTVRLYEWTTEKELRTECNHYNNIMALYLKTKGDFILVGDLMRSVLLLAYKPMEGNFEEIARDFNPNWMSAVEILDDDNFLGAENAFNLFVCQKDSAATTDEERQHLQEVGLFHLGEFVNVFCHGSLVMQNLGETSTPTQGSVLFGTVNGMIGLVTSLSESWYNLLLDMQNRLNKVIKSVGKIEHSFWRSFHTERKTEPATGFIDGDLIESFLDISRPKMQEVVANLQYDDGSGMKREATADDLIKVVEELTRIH
T5 sequence (Q9UKS7 whole entry): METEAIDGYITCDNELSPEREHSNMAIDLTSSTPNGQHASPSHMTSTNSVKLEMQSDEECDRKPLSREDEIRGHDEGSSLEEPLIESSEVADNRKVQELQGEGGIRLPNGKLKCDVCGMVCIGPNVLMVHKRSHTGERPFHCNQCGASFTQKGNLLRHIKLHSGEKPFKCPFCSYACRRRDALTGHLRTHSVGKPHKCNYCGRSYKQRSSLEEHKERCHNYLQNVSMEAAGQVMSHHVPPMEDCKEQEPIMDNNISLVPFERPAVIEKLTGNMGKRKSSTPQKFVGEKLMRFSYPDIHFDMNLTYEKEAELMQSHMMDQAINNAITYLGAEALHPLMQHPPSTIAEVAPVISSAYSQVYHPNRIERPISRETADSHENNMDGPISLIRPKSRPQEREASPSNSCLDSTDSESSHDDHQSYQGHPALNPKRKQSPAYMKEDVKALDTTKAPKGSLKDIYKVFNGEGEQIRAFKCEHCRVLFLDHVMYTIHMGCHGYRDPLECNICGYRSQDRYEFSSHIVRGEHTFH
T5 sequence (Q96SW2 whole entry): as the sequence (Q96SW2 whole entry) above
T5 sequence (Q16531 whole entry partner): as the sequence (Q16531 whole entry partner) above
T3 sequence (P15170 whole entry): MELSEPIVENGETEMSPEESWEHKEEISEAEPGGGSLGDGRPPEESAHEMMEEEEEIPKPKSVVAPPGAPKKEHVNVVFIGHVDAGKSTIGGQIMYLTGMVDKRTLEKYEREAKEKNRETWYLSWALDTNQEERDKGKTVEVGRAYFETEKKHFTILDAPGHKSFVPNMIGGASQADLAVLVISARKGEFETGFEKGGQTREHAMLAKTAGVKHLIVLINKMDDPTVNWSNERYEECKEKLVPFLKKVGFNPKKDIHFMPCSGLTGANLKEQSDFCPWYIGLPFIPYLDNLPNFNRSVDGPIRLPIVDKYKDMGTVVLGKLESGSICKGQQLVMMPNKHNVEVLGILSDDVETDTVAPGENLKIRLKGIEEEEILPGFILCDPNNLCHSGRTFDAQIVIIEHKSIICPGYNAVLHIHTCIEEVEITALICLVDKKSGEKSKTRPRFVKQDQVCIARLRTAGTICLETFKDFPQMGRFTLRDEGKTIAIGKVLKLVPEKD
T3 sequence (Q96SW2 whole entry): as the sequence (Q96SW2 whole entry) above
T3 sequence (Q16531 whole entry partner): as the sequence (Q16531 whole entry partner) above
T1 sequence (Q9UKT9 whole entry): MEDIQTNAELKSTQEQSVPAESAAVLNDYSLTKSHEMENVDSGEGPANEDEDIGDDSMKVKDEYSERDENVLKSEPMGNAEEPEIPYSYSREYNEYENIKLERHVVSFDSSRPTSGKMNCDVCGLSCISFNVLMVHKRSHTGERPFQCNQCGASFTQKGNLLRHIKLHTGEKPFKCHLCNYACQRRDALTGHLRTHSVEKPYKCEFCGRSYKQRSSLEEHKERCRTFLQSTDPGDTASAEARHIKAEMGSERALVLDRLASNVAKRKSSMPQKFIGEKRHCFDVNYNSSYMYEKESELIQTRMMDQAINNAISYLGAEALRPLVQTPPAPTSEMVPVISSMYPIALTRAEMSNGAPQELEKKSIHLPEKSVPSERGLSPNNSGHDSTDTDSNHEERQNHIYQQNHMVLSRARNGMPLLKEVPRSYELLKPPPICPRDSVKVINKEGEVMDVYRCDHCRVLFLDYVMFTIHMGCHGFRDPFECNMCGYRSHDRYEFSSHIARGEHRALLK
T1 sequence (Q96SW2 whole entry): as the sequence (Q96SW2 whole entry) above
T1 sequence (Q16531 whole entry partner): as the sequence (Q16531 whole entry partner) above
T4 sequence (Q13422 whole entry): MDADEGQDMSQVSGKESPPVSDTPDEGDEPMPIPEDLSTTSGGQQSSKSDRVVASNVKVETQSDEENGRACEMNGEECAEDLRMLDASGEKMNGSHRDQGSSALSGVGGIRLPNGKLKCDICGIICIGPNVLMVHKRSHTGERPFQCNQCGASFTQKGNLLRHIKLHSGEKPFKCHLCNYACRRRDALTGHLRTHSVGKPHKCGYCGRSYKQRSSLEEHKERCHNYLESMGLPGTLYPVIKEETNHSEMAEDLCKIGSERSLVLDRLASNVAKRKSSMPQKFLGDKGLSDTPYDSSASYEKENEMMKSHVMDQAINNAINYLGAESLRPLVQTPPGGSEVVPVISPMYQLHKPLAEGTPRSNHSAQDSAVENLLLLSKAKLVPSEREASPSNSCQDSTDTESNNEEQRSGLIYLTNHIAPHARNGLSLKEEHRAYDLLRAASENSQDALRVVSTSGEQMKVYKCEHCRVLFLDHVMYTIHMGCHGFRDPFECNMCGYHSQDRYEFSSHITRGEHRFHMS
T4 sequence (Q96SW2 whole entry): as the sequence (Q96SW2 whole entry) above
T4 sequence (Q16531 whole entry partner): as the sequence (Q16531 whole entry partner) above

| Structure (SMILES) | IKZF3 substrate protein remaining % (IKZF3) | WEE1 substrate protein remaining % (WEE1) | GSPT1 substrate protein remaining % (GSPT1) | IKZF1 substrate protein remaining % (IKZF1) | IKZF2 substrate protein remaining % (IKZF2) | CK1α substrate protein remaining % (CK1α) |
| --- | --- | --- | --- | --- | --- | --- |
| CC(C)c1cc2c(N3CCN(Cc4ccc5c(c4)CN(N4CCC(=O)NC4=O)C5=O)CC3)ncnc2s1 [GT-08060, 1-(5-((4-(6-isopropylthieno[2,3-d]pyrimidin-4-yl)piperazin-1-yl)methyl)-1-oxoisoindolin-2-yl)dihydropyrimidine-2,4(1H,3H)-dione] | A (0% ≤ substrate protein remaining % ≤80%) | B (80%< substrate protein remaining % ≤100%) | B (80%< substrate protein remaining % ≤100%) | B (80%< substrate protein remaining % ≤100%) | A (0% ≤ substrate protein remaining % ≤80%) | B (80%< substrate protein remaining % ≤100%) |
| Cc1sc2ncnc(N3CCN(Cc4ccc5c(c4)CN(N4CCC(=O)NC4=O)C5=O)CC3)c2c1C [GT-08061, 1-(5-((4-(5,6-dimethylthieno[2,3-d]pyrimidin-4-yl)piperazin-1-yl)methyl)-1-oxoisoindolin-2-yl)dihydropyrimidine-2,4(1H,3H)-dione] | A (0% ≤ substrate protein remaining % ≤80%) | B (80%< substrate protein remaining % ≤100%) | B (80%< substrate protein remaining % ≤100%) | B (80%< substrate protein remaining % ≤100%) | A (0% ≤ substrate protein remaining % ≤80%) | B (80%< substrate protein remaining % ≤100%) |
| Cc1sc2ncnc(N3CCCN(Cc4ccc5c(c4)CN(N4CCC(=O)NC4=O)C5=O)CC3)c2c1C [GT-08062, 1-(5-((4-(5,6-dimethylthieno[2,3-d]pyrimidin-4-yl)-1,4-diazepan-1-yl)methyl)-1-oxoisoindolin-2-yl)dihydropyrimidine-2,4(1H,3H)-dione] | A (0% ≤ substrate protein remaining % ≤80%) | B (80%< substrate protein remaining % ≤100%) | B (80%< substrate protein remaining % ≤100%) | B (80%< substrate protein remaining % ≤100%) | A (0% ≤ substrate protein remaining % ≤80%) | B (80%< substrate protein remaining % ≤100%) |
| O=C1CCN(N2Cc3cc(CN4CCN(c5ncnc6sc(Br)cc56)CC4)ccc3C2=O)C(=O)N1 [GT-08063, 1-(5-((4-(6-bromothieno[2,3-d]pyrimidin-4-yl)piperazin-1-yl)methyl)-1-oxoisoindolin-2-yl)dihydropyrimidine-2,4(1H,3H)-dione] | A (0% ≤ substrate protein remaining % ≤80%) | B (80%< substrate protein remaining % ≤100%) | B (80%< substrate protein remaining % ≤100%) | B (80%< substrate protein remaining % ≤100%) | A (0% ≤ substrate protein remaining % ≤80%) | B (80%< substrate protein remaining % ≤100%) |
| O=C1CCN(N2Cc3cc(CN4CCN(c5ncnc6sc(-c7ccccc7)cc56)CC4)ccc3C2=O)C(=O)N1 [GT-08064, 1-(1-oxo-5-((4-(6-phenylthieno[2,3-d]pyrimidin-4-yl)piperazin-1-yl)methyl)isoindolin-2-yl)dihydropyrimidine-2,4(1H,3H)-dione] | B (80%< substrate protein remaining % ≤100%) | B (80%< substrate protein remaining % ≤100%) | B (80%< substrate protein remaining % ≤100%) | B (80%< substrate protein remaining % ≤100%) | A (0% ≤ substrate protein remaining % ≤80%) | B (80%< substrate protein remaining % ≤100%) |
| O=C1CCN(N2Cc3cc(CN4CCN(c5ncnc6scc(-c7ccccc7)c56)CC4)ccc3C2=O)C(=O)N1 [GT-08065, 1-(1-oxo-5-((4-(5-phenylthieno[2,3-d]pyrimidin-4-yl)piperazin-1-yl)methyl)isoindolin-2-yl)dihydropyrimidine-2,4(1H,3H)-dione] | B (80%< substrate protein remaining % ≤100%) | B (80%< substrate protein remaining % ≤100%) | B (80%< substrate protein remaining % ≤100%) | B (80%< substrate protein remaining % ≤100%) | A (0% ≤ substrate protein remaining % ≤80%) | B (80%< substrate protein remaining % ≤100%) |
| Cc1nc(N2CCN(Cc3ccc4c(c3)CN(N3CCC(=O)NC3=O)C4=O)CC2)c2c(-c3ccccc3)csc2n1 [GT-08066, 1-(5-((4-(2-methyl-5-phenylthieno[2,3-d]pyrimidin-4-yl)piperazin-1-yl)methyl)-1-oxoisoindolin-2-yl)dihydropyrimidine-2,4(1H,3H)-dione] | B (80%< substrate protein remaining % ≤100%) | B (80%< substrate protein remaining % ≤100%) | B (80%< substrate protein remaining % ≤100%) | B (80%< substrate protein remaining % ≤100%) | A (0% ≤ substrate protein remaining % ≤80%) | A (0% ≤ substrate protein remaining % ≤80%) |
| Cc1nc(N2CCN(Cc3ccc4c(c3)CN(N3CCC(=O)NC3=O)C4=O)CC2)c2ccsc2n1 [GT-08067, 1-(5-((4-(2-methylthieno[2,3-d]pyrimidin-4-yl)piperazin-1-yl)methyl)-1-oxoisoindolin-2-yl)dihydropyrimidine-2,4(1H,3H)-dione] | B (80%< substrate protein remaining % ≤100%) | B (80%< substrate protein remaining % ≤100%) | B (80%< substrate protein remaining % ≤100%) | B (80%< substrate protein remaining % ≤100%) | A (0% ≤ substrate protein remaining % ≤80%) | B (80%< substrate protein remaining % ≤100%) |
| Cc1nc(N2CCN(Cc3ccc4c(c3)CN(N3CCC(=O)NC3=O)C4=O)CC2)c2c3c(sc2n1)CCCC3 [GT-08068, 1-(5-((4-(2-methyl-5,6,7,8-tetrahydrobenzo[4,5]thieno[2,3-d]pyrimidin-4-yl)piperazin-1-yl)methyl)-1-oxoisoindolin-2-yl)dihydropyrimidine-2,4(1H,3H)-dione] | B (80%< substrate protein remaining % ≤100%) | B (80%< substrate protein remaining % ≤100%) | B (80%< substrate protein remaining % ≤100%) | B (80%< substrate protein remaining % ≤100%) | A (0% ≤ substrate protein remaining % ≤80%) | A (0% ≤ substrate protein remaining % ≤80%) |
| O=C1CCN(N2Cc3cc(CN4CCN(c5ncnc6sc7c(c56)CCCC7)CC4)ccc3C2=O)C(=O)N1 [GT-08077, 1-(1-oxo-5-((4-(5,6,7,8-tetrahydrobenzo[4,5]thieno[2,3-d]pyrimidin-4-yl)piperazin-1-yl)methyl)isoindolin-2-yl)dihydropyrimidine-2,4(1H,3H)-dione] | B (80%< substrate protein remaining % ≤100%) | B (80%< substrate protein remaining % ≤100%) | A (0% ≤ substrate protein remaining % ≤80%) | B (80%< substrate protein remaining % ≤100%) | B (80%< substrate protein remaining % ≤100%) | A (0% ≤ substrate protein remaining % ≤80%) |
| O=C1CCN(N2Cc3cc(CN4CCN(c5ncnc6sc7c(c56)CCC7)CC4)ccc3C2=O)C(=O)N1 [GT-08079, 1-(5-((4-(6,7-dihydro-5H-cyclopenta[4,5]thieno[2,3-d]pyrimidin-4-yl)piperazin-1-yl)methyl)-1-oxoisoindolin-2-yl)dihydropyrimidine-2,4(1H,3H)-dione] | B (80%< substrate protein remaining % ≤100%) | A (0% ≤ substrate protein remaining % ≤80%) | A (0% ≤ substrate protein remaining % ≤80%) | B (80%< substrate protein remaining % ≤100%) | B (80%< substrate protein remaining % ≤100%) | A (0% ≤ substrate protein remaining % ≤80%) |
